Measured values reported in ChEMBL document CHEMBL3734688, “Synthesis and evaluation of 6-methylcoumarin derivatives as potent and selective monoamine oxidase B inhibitors” (Medchemcomm, 2015).

What was measured:
[1] = target: T1, Amine oxidase [flavin-containing] A (Homo sapiens, UniProt P21397); test: Inhibition of recombinant human MAO-A using p-tyramine as substrate preincubated for 15 mins followed by substrate addition by Amplex Red probe-based fluorometric analysis
T1 sequence (P21397 whole entry): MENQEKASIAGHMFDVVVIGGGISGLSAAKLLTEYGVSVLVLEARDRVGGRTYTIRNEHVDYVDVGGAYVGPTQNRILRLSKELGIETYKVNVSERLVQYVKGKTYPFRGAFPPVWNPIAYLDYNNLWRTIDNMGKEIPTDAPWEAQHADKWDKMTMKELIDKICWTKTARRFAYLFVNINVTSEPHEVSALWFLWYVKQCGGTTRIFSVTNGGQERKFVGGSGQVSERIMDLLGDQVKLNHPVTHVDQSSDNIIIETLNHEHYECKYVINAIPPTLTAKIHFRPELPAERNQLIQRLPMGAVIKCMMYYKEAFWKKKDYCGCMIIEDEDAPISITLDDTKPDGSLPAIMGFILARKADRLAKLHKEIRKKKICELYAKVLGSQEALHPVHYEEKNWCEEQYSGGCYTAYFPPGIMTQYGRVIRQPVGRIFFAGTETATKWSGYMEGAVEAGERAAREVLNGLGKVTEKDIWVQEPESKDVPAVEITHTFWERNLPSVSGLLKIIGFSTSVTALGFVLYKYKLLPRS

[2] = target: T2, Amine oxidase [flavin-containing] B (Homo sapiens, UniProt P27338); test: Inhibition of recombinant human MAO-B using p-tyramine as substrate preincubated for 15 mins followed by substrate addition by Amplex Red probe-based fluorometric analysis
T2 sequence (P27338 whole entry): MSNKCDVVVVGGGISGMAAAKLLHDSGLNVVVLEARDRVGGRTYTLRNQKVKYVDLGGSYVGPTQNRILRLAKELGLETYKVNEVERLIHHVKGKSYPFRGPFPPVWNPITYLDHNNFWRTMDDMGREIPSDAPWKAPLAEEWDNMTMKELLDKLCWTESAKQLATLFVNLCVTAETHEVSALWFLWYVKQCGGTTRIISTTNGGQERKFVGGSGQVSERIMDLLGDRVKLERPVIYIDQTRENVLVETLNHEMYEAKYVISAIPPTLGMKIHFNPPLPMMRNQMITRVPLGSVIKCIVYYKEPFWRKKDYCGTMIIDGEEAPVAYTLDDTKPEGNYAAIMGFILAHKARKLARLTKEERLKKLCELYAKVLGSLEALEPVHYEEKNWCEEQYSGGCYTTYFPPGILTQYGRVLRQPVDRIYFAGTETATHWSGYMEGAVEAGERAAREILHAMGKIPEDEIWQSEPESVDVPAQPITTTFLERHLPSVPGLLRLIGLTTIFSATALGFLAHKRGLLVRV

Homo sapiens = organism: Homo sapiens; test: Selectivity index, ratio of IC50 for recombinant human MAO-A to IC50 for recombinant human MAO-B
[3] = target: T1, Amine oxidase [flavin-containing] A; test: Inhibition of recombinant human MAO-A using p-tyramine as substrate at 100 uM preincubated for 15 mins followed by substrate addition by Amplex Red probe-based fluorometric analysis
[4] = Neurotoxicity in rat PC12 cells assessed as cell viability at 2.5 to 20 uM after 48 hrs by MTT assay; assay type: toxicity, cell-based; details: pc-12, 48 h
SH-SY5Y = test: Neurotoxicity in human SH-SY5Y cells assessed as cell viability at 2.5 to 20 uM after 48 hrs by MTT assay; assay type: toxicity, cell-based
HUVEC = test: Toxicity in HUVEC assessed as cell viability at 2.5 to 20 uM after 48 hrs by MTT assay; assay type: cell-based; details: human

| IC50 [1] [µM] | IC50 [2] [µM] | Ratio IC50 (Homo sapiens) | inhibition (INH) [3] | SMILES | Activity [4] | Activity (SH-SY5Y) | Activity (HUVEC) |
| --- | --- | --- | --- | --- | --- | --- | --- |
| 40.6 | 10.7 | 3.79 |  | Cc1ccc2oc(=O)c(-c3cccc(OCCCCBr)c3)cc2c1 |  |  |  |
| 19.5 | 3.67 | 5.3 |  | Cc1ccc2oc(=O)c(-c3cccc(OCCCBr)c3)cc2c1 |  |  |  |
|  | 0.938 | > 107 | Not Active | CC(=O)Oc1ccccc1-c1cc2cc(C)ccc2oc1=O |  |  |  |
| 34.9 | 0.905 | 38.6 |  | Cc1ccc2oc(=O)c(-c3cccc(OCCCN(C)C)c3)cc2c1 |  |  |  |
| 6.67 | 2.58 | 2.59 |  | Cc1ccc2oc(=O)c(-c3cccnc3)cc2c1 |  |  |  |
|  | 0.714 | > 140 | Not Active | CC(=O)Oc1cccc(-c2cc3cc(C)ccc3oc2=O)c1 |  |  |  |
| 43.9 | 5.67 | 7.75 |  | Cc1ccc2oc(=O)c(-c3c[nH]c4ccccc34)cc2c1 |  |  |  |
|  | 0.106 | > 947 | Not Active | Cc1ccc2oc(=O)c(-c3ccc(OCc4ccccc4)cc3)cc2c1 |  |  |  |
|  | 0.401 | > 249 | Not Active | CC(=O)Oc1ccc(-c2cc3cc(C)ccc3oc2=O)cc1 |  |  |  |
|  | 0.218 | > 459 | Not Active | Cc1ccc2oc(=O)c(-c3cccc(OCCN(C)C)c3)cc2c1 |  |  |  |
| 8.09 | 3.76 | 2.16 |  | Cc1ccc2oc(=O)c(-c3cccs3)cc2c1 |  |  |  |
| 26.7 | 1.13 | 23.6 |  | Cc1ccc2oc(=O)c(-c3cccc(OCCCCN(C)C)c3)cc2c1 |  |  |  |
|  | 0.175 | > 572 | Not Active | Cc1ccc2oc(=O)c(-c3ccc(OCc4cccc(F)c4)cc3)cc2c1 |  |  |  |
|  | 0.253 | > 395 | Not Active | Cc1ccc2oc(=O)c(-c3ccccc3OCc3cccc(F)c3)cc2c1 |  |  |  |
|  | 0.0601 | > 1660 | Not Active | Cc1ccc2oc(=O)c(-c3cccc(OCc4cccc(F)c4)c3)cc2c1 | Non-toxic | Non-toxic | Non-toxic |
| 20.7 | 2.45 | 8.47 |  | Cc1ccc2oc(=O)c(-c3cccc(OCCBr)c3)cc2c1 |  |  |  |
| 15.8 | 0.651 | 24.2 |  | Cc1ccc2oc(=O)c(-c3cccc(OC(=O)c4ccccc4)c3)cc2c1 |  |  |  |
|  | 0.256 | > 390 | Not Active | Cc1ccc2oc(=O)c(-c3ccccc3OCc3ccccc3)cc2c1 |  |  |  |
|  | 0.201 | > 498 | Not Active | Cc1ccc2oc(=O)c(-c3cccc(OCc4ccccc4)c3)cc2c1 |  |  |  |
| 55.5 | 6.49 | 8.55 |  | Cc1ccc2oc(=O)c(-c3cccc4ccccc34)cc2c1 |  |  |  |
|  | 0.305 | > 328 | Not Active | Cc1ccc(S(=O)(=O)Oc2cccc(-c3cc4cc(C)ccc4oc3=O)c2)cc1 |  |  |  |

| SMILES | IC50 [1] [µM] | IC50 [2] [µM] | Ratio IC50 (Homo sapiens) | inhibition (INH) [3] | Activity [4] | Activity (SH-SY5Y) | Activity (HUVEC) |
| --- | --- | --- | --- | --- | --- | --- | --- |
| Cc1ccc2oc(=O)c(-c3cccc(OC(=O)N(C)C)c3)cc2c1 |  | 4.43 | > 22.6 | Not Active |  |  |  |
